Test results published in patent US8796275B2, “Anti-malarial compounds” (The Trustees of the University of Pennsylvania, priority 2008, dated 2014).
Read-outs that look alike come from different tables or passages of the source.

Key:
[1] = test system: 3D7 strain of P. falciparum; assay: High throughput quantitative parasite growth assay, luciferase expressing parasites; assay type: cell-based, Plasmodium falciparum; settings: luciferase readout, approximately 60 hours growth
Description: Numerous compounds were initially screened using a high throughput quantitative parasite growth assay that makes use of a strain of parasites expressing a cytoplasmic firefly luciferase (obtained from Dr. Kirk Deitsch, Cornell Medical College). These parasites were transfected with a vector containing the firefly luciferase gene using the malarial HRPII promoter. To grow parasites, culture dishes ranging from 96 well plates to 30 ml dishes were used. […] Parasites were cultured in human RBCs under an atmosphere of 5% O2/7% CO2/88% N2 in RPMI 1640 medium supplemented with 25 mM Hepes, 30 mg/L hypoxanthine, 0.225% (w/v) NaHCO3 and 0.5% (w/v) Albumax II (Life Technologies, Grand Island, N.Y.).
A standard luminescent readout was used to measure the growth of parasites. Parasites were grown under normal conditions, lysed in the presence of the luminescence reagents (Bright Glo, Promega) and then measured. To initially test for growth, luciferase expressing parasites were synchronized using serial sorbitol treatments and then parasitemia, the percentage of RBCS infected with parasites, was adjusted using uninfected RBCs. 100 μl of total media was used in a 96 well format. Parasitized RBCs were incubated in 96 well plates at 37° C. and gassed with 5% CO2, 5% O2, 90% N2. Parasites were allowed to grow for approximately 60 hours, until they successfully divided, ruptured and reinvaded new RBCs. At 10-15 hours post invasion, the cells were lysed, and luciferase levels were measured using an Analyst HT luminometer (Molecular Devices).

food vacuole = assay: Food vacuole integrity, parasites expressing plasmepsin II-YFP, fluorescence microscopy; assay type: cell-based, Plasmodium falciparum; settings: plasmepsin II-YFP marker
P. falciparum DD2 = assay: microbe, parasite or virus in culture; assay type: cell-based, Plasmodium falciparum; settings: for IC50: Plasmodium falciparum, DD2, read-out: IC50 (DD2)
Source text: (§1) Flow cytometry was used for quantitation of parasitemia using SYOX Green on an LSRII.

P. falciparum 3D7 = assay: Cultures of P. falciparum 3D7, flow cytometry quantitation of parasitemia; assay type: cell-based; settings: Plasmodium falciparum
Source text: as §1

[2] = test system: uninfected red blood cells
P. falciparum = assay: Anti-parasitic activity in vitro, human red blood cell assay; assay type: cell-based, Plasmodium falciparum
Description: Anti-parasitic activities were measured in vitro using a human red blood cell assay. A single P. falciparum organism typically infects an erythrocyte and produces 24 progeny within 48 hours following infection. The progeny are released and rapidly infect neighboring red blood cells. […] Observations were also made during the 48 hour incubation period to assess the susceptibility of the parasite during lifecycle stages inside and outside the host erythrocyte. […] One goal of targeting parasite membranes, rather than proteins or metabolic pathways, represents a highly innovative and novel strategy for treating parasitic diseases and distinguishes this approach from most others in this field.

[3] = Plasmodium falciparum, 3D7, 60 h

Row | Compound | IC50 [1, 3] [nM] | further results
1 | NCCN1CC=C(c2ccc3sc4ccc(C5=CCN(CCN)CC5)cc4c3c2)CC1 [Compound 136] | 958 | –
2 | NCCCc1cccc(-c2ccc3oc4ccc(-c5cccc(CCCN)c5)cc4c3c2)c1 [Compound 120] | 604 | –
3 | CCn1c2ccc(-c3cccc(CCCN)c3)cc2c2cc(-c3cccc(CCCN)c3)ccc21 [Compound 137] | 604 | –
4 | c1cc(N2CCNCC2)ncc1-c1ccc2sc3ccc(-c4ccc(N5CCNCC5)nc4)cc3c2c1 [Compound 117] | 301 | –
5 | NCCc1cccc(-c2ccc3sc4ccc(-c5cccc(CCN)c5)cc4c3c2)c1 [Compound 106] | 1150 | disruption of food vacuoles (food vacuole): disrupted food vacuoles; cytotoxicity (human HepG2 cells): 40 to 50 µM; effectiveness in strain DD2 (P. falciparum DD2; DD2 strain): effective; IC50 (P. falciparum DD2): 100 nM; IC50 (P. falciparum 3D7; 3D7 strain, read-out: IC50 (3D7)): 150 nM; hemolytic [2]: Neither compound, however, was hemolytic
6 | NCCCc1ccc(-c2ccc3sc4ccc(-c5ccc(CCCN)cc5)cc4c3c2)cc1 [Compound 130] | – | IC50 [1]: 2560 nM
7 | C[C@H]1[C@H](OC(=O)CCC(=O)O)O[C@@H]2O[C@@]3(C)CC[C@H]4[C@H](C)CC[C@@H]1[C@@]24OO3 [Artesunate, artesunate, reference compound] | 9 | –
8 | NCc1cccc(-c2ccc3sc4ccc(-c5cccc(CN)c5)cc4c3c2)c1 [Compound 131] | – | IC50 [1]: 235 nM
9 | C1=C(c2ccc3sc4ccc(C5=CCNCC5)cc4c3c2)CCNC1 [Compound 138] | 213 | –
10 | N=C(N)NCCCc1cccc(-c2ccc3sc4ccc(-c5cccc(CCCNC(=N)N)c5)cc4c3c2)c1 [Compound 139] | 1170 | –
11 | COc1ccc(CCN)cc1-c1ccc2sc3ccc(-c4cc(CCN)ccc4OC)cc3c2c1 [Compound 135] | 108 | –
12 | NCc1cccc(-c2ccc3[nH]c4ccc(-c5cccc(CN)c5)cc4c3c2)c1 [Compound 118] | 364 | –
13 | NCCCc1cccc(-c2ccc3c(c2)-c2cc(-c4cccc(CCCN)c4)ccc2S3(=O)=O)c1 [Compound 133] | 2030 | –
14 | c1cc(-c2ccc3sc4ccc(-c5ccnc(N6CCNCC6)c5)cc4c3c2)cc(N2CCNCC2)n1 [Compound 110] | 584 | –
15 | NCCNCc1cncc(-c2ccc3sc4ccc(-c5cncc(CNCCN)c5)cc4c3c2)c1 [Compound 140] | 1670 | –
16 | CCN(CC)CCCC(C)Nc1ccnc2cc(Cl)ccc12 (stereo not shown) [chloroquine, reference compound] | – | resistance of DD2 strain relative to 3D7 strain (P. falciparum DD2; DD2 vs 3D7): 4 times; IC50 (P. falciparum DD2): 80 nM; IC50 (P. falciparum 3D7; 3D7, read-out: IC50 (3D7)): 20 nM
17 | NCCCc1cccc(-c2ccc3[nH]c4ccc(-c5cccc(CCCN)c5)cc4c3c2)c1 [Compound 119] | 1860 | –
18 | NCCCc1cccc(-c2ccc3sc4ccc(-c5cccc(CCCN)c5)cc4c3c2)c1 [Compound 116] | 318 | IC50 (P. falciparum; Plasmodium falciparum, Erythrocyte, minimum concentration resulting in 50% killing, 48 hour incubation): 50 nM; IC50 (μM) (P. falciparum; minimum concentration resulting in 50% killing, 48 hour incubation): sub-μM; IC100 (P. falciparum; minimum concentration resulting in 100% killing, 48 hour incubation): 0.850 µM; % Kill @ 10 μM (P. falciparum; single concentration 10 μM): 100%
19 | NCCc1cccc(-c2ccc3c(c2)c2cc(-c4cccc(CCN)c4)ccc2[s+]3[O-])c1 [Compound 134] | 2440 | –
20 | N=C(N)NCCCCC(=O)Nc1cc(Br)cc(NC(=O)c2cc(C(=O)Nc3cc(Br)cc(NC(=O)CCCCNC(=N)N)c3SCCNC=O)ncn2)c1SCCNC=O [Compound 125] | 286 | –
21 | c1cc(N2CCNCC2)ccc1-c1ccc2sc3ccc(-c4ccc(N5CCNCC5)cc4)cc3c2c1 [Compound 132] | 236 | –
22 | NCCCc1cccc(-c2ccc3c(c2)-c2cc(-c4cccc(CCCN)c4)ccc2S3(=O)=O)c1 [Compound 141] | – | IC50 [1]: 1340 nM
